# Entries after “also recorded” stand apart in the source; their conditions may differ.
# Experiments:
# WT zebrafish larvae = assay: Toxicity evaluation: maximum tolerated concentration (MTC); format: in vivo, Danio rerio; conditions: WT larvae 6 dpf, 22 h incubation
# Method: To evaluate the maximum tolerated concentration (MTC) of the individual compounds, a dozen of WT zebrafish larvae (6 dpf) were individually incubated in single wells of a 96-well plate, and treated with two-fold serial dilutions of the compounds. After 22 h incubation under standard conditions (28 °C, 14/10 light/dark cycle), larvae were individually examined for their touch response, posture, edema, signs of necrosis, morphology, heartbeat rate, and swim bladder condition under the microscope.
# [1] = test system: zebrafish scn1Lab−/− mutant larvae; assay: Locomotor activity measurement (behavioral assay) in the zebrafish DS model; format: in vivo, Danio rerio; conditions: 22 h; for effect on epileptiform (hyper-)locomotor activity: single treatment at MTC, Fig. 2A
# Method: (§1) WT and homozygous zebrafish larvae (scn1Lab^−/− mutants) (6 dpf) were individually positioned in single wells of a 96-well plate, and incubated in 100 μL VHC or VHC supplemented with compound or combined compounds for 22 h at 28 °C on a 14/10 h light/dark cycle. Then, the plates were placed immediately in an enclosed tracking device (ZebraBox Viewpoint, France), followed by a 30 min chamber habituation and 10 min recording. Locomotor activity over the total tracking period of 10 min was quantified by ZebraLab software (Software Viewpoint, France) using the lardist parameter (total distance in large movements) and 150 bkg (background) as a threshold, as reported previously by our group. For “small/large movement” and “inact/small movement”, a threshold was used of 6.4 and 3.3, respectively. Data were pooled from three or four independent experiments, with at least five larvae for each treatment and 20–30 larvae for each experimental condition, and expressed as “cm” per 100 s.
# [2] = test system: zebrafish scn1Lab−/− mutant larvae; assay: Noninvasive local field potential (LFP) recordings from the optic tectum; format: in vivo, Danio rerio; conditions: 22 h; for effect on cumulative duration of epileptiform events: Fig. 2B; for effect on frequency of epileptiform events: Fig. 2C
# Method: (§2) WT and homozygous zebrafish larvae (scn1Lab^−/− mutants) (6 dpf) were treated as described above. After incubation, larvae were immobilized in 2% low-melting-point agarose (Invitrogen) at room temperature (RT) and the epileptiform activities were measured by noninvasive local field potential (LFP) recording from the skin above the optic tectum (midbrain). The single glass electrode filled with artificial cerebrospinal fluid (ACSF) (124 mM NaCl, 2 mM KCl, 2 mM MgSO4, 2 mM CaCl2, 1.25 mM KH2PO4, 26 mM NaHCO3, and 10 mM glucose) was positioned on the skin above the optic tectum. Each recording lasted for 10 min. Epileptiform activity was quantified by using Clampfit 10.2 software (Molecular Devices Corporation, USA60), as reported previously by our group.
# 5-HT2C = test system: 5-HT2C; parameters: method as in earlier work; conditions: 34 (Rothman et al.); cited from earlier work
# [3] = test system: norepinephrine (NE) release; parameters: method as in earlier work; conditions: 34 (Rothman et al.); cited from earlier work
# [4] = test system: zebrafish scn1Lab−/− mutant model of DS; assay: Overall antiepileptic activity in the zebrafish scn1Lab−/− mutant model (locomotor and LFP read-outs together); format: in vivo, Danio rerio; conditions: 22 h incubation
# Method: as §1, §2
# [5] = biological target: norepinephrine (NE) uptake; parameters: method as in earlier work; conditions: 34 (Rothman et al.); read-out: Ki values for uptake inhibition, NE; cited from earlier work
# 5-HT2B = test system: 5-HT2B; parameters: method as in earlier work; conditions: 34 (Rothman et al.); cited from earlier work
# dopamine (DA) release = test system: dopamine (DA) release; parameters: method as in earlier work; conditions: 34 (Rothman et al.); cited from earlier work
# dopamine (DA) uptake = biological target: dopamine (DA) uptake; parameters: method as in earlier work; conditions: 34 (Rothman et al.); read-out: Ki values for uptake inhibition, DA; cited from earlier work
# 5-HT2A = test system: 5-HT2A; parameters: method as in earlier work; conditions: 34 (Rothman et al.); cited from earlier work
# serotonin uptake = biological target: serotonin uptake; parameters: method as in earlier work; conditions: 34 (Rothman et al.); read-out: Ki values for uptake inhibition, 5-HT; cited from earlier work
# [6] = test system: 5-HT transporter proteins; parameters: method as in earlier work; conditions: 34 (Rothman et al.); read-out: EC50 values for release, 5-HT; cited from earlier work
# [7] = Compound concentration (uptake) in larval zebrafish heads by LC-MS; format: in vivo, Danio rerio; conditions: immersion at MTC for 30 min, 4 h and 22 h, Fig. 4
# Method: WT and homozygous zebrafish larvae (scn1Lab^−/− mutants) (6 dpf) were treated as described above. After incubation with compounds, larvae were washed and euthanized by exposure to cold Milli-Q water. Then, the heads of larvae were carefully separated under the microscope, and five heads were transferred collectively into one 1.5 mL Eppendorf tube with acid-washed glass beads (diameter: […], Sigma Aldrich) and 275 µL extraction medium (HPLC grade methanol, Sigma Aldrich). Next, the samples were homogenized by 10 min of ultrasonication (Diagenode Bioruptor Plus, Belgium) at 4 °C. The overall ultrasonication process encompassed 10 cycles of 30 s with pauses of 30 s in-between with high energy input. […]
# Quantification was performed through the use of a calibration curve created for each compound separately in blank matrix, which was derived from a pooled set of blank fish heads (n = 40). […] Ranges consisted of at least 5 concentrations, each of which was analyzed in replicate (n = 5). […]
# The mean head weight (± S.D.) of a 6 dpf and 7 dpf zebrafish larva was 192 ± 10 µg and 196 ± 13 µg, respectively, as measured by weighing three batches of 50 fresh heads after removing excess water with filter paper. The final uptake was calculated according to the method reported by Copmans et al., and expressed as amount/head weight (µg/g).
# [8] = test system: DS zebrafish mutant model; parameters: method as in PMID 29335539; conditions: cited from earlier work
# [9] = VPA single treatment at 250 µM, Fig. 3
smiles,measurement,setting,value
"CCNC(C)Cc1cccc(C(F)(F)F)c1 (racemic) [(±)-FFA, (±)-Fenfluramine]",maximum tolerated concentration (MTC),WT zebrafish larvae,50 µM
same,effect on locomotor activity,"[1]; (±)-FFA single treatment at 3.13 µM, Fig. 3D",significant effect
same,effect on epileptiform (hyper-)locomotor activity,[1],significantly counteracted
same,effect on epileptiform brain discharges,"[2]; (±)-FFA single treatment at 3.13 µM, Fig. 3E, F",not on the epileptiform brain discharges
same,effect on cumulative duration of epileptiform events,[2]; single treatment at MTC,decrease
same,effect on frequency of epileptiform events,[2]; single treatment at MTC,dramatically attenuated
CCN[C@@H](C)Cc1cccc(C(F)(F)F)c1 [(+)-FFA],"Kact values for 5-HT2 receptor subtypes, 5-HT2C",5-HT2C,362 ± 64 nM
same,EC50,[3],302 ± 20 nM
same,antiepileptic activity in the model (overall),[4],more consistent and concentration-dependent; also recorded: significant antiepileptic effects
same,Ki,[5],1290 ± 52 nM
same,"Kact values for 5-HT2 receptor subtypes, 5-HT2B",5-HT2B,379 ± 70 nM
same,EC50,dopamine (DA) release,> 10000 nM
same,Ki,dopamine (DA) uptake,> 20000 nM
C[C@H](N)Cc1cccc(C(F)(F)F)c1 [(+)-norFFA],"Kact values for 5-HT2 receptor subtypes, 5-HT2C",5-HT2C,13 ± 2.4 nM
same,"Kact values for 5-HT2 receptor subtypes, 5-HT2A",5-HT2A,630 ± 141 nM
same,EC50,[3],72.7 ± 5.4 nM
same,Ki,serotonin uptake,214 ± 9 nM
same,EC50,[6],59.3 ± 2.4 nM
same,total uptake in larval heads (amount of compound/head weight),[7],somewhat similar uptake; also recorded: taken up less than the parent compound
same,antiepileptic activity in the model (overall),[4],more consistent and concentration-dependent; also recorded: significant antiepileptic effects
same,Ki,[5],205 ± 19 nM
same,"Kact values for 5-HT2 receptor subtypes, 5-HT2B",5-HT2B,18.4 ± 5.3 nM
same,EC50,dopamine (DA) release,924 ± 112 nM
same,Ki,dopamine (DA) uptake,2310 ± 87 nM
CCN[C@H](C)Cc1cccc(C(F)(F)F)c1 [(−)-FFA],"Kact values for 5-HT2 receptor subtypes, 5-HT2C",5-HT2C,360 ± 91 nM
same,EC50,[3],> 10000 nM
same,antiepileptic activity in the model (overall),[4],significant antiepileptic effects
same,Ki,[5],7190 ± 559 nM
same,"Kact values for 5-HT2 receptor subtypes, 5-HT2B",5-HT2B,1248 ± 252 nM
same,EC50,dopamine (DA) release,> 10000 nM
same,Ki,dopamine (DA) uptake,> 20000 nM
C[C@@H](N)Cc1cccc(C(F)(F)F)c1 [(−)-norFFA],"Kact values for 5-HT2 receptor subtypes, 5-HT2C",5-HT2C,18 ± 3.5 nM
same,"Kact values for 5-HT2 receptor subtypes, 5-HT2A",5-HT2A,1565 ± 190 nM
same,EC50,[3],474 ± 40 nM
same,Ki,serotonin uptake,1180 ± 89 nM
same,EC50,[6],287 ± 14 nM
same,total uptake in larval heads (amount of compound/head weight),[7],somewhat similar uptake
same,antiepileptic activity in the model (overall),[4],less conclusive
same,Ki,[5],2050 ± 297 nM
same,"Kact values for 5-HT2 receptor subtypes, 5-HT2B",5-HT2B,357 ± 105 nM
same,EC50,dopamine (DA) release,> 10000 nM
same,effect on frequency and cumulative duration of the epileptiform events,"[2]; at least at MTC, Fig. 7",all compounds except for (−)-norFFA significantly reduced
same,Ki,dopamine (DA) uptake,19200 nM
"C=C(C)[C@@H]1CCC(C)=C[C@H]1c1c(O)cc(CCCCC)cc1O [CBD, cannabidiol]",maximum tolerated concentration (MTC),WT zebrafish larvae,6.25 µM
same,effect on epileptiform (hyper-)locomotor activity,[1],failed to rescue; also recorded: not active
same,effect on epileptiform brain discharges,[2]; single treatment at MTC,failed to rescue; also recorded: not active
"NC(=O)N1c2ccccc2C=Cc2ccccc21 [CBZ, carbamazepine]",maximum tolerated concentration (MTC),WT zebrafish larvae,50 µM
same,effect on epileptiform (hyper-)locomotor activity,[1],no inhibitory effects
same,effect on epileptiform brain discharges,[2]; single treatment at MTC,no inhibitory effects
"CN1C(=O)CC(=O)N(c2ccccc2)c2cc(Cl)ccc21 [CLB, clobazam]",maximum tolerated concentration (MTC),WT zebrafish larvae,100 µM
same,efficacy in the DS zebrafish mutant model,[8],ineffective
same,effect on epileptiform (hyper-)locomotor activity,[1],failed to rescue
same,effect on epileptiform brain discharges,[2]; single treatment at MTC,failed to rescue
"CC[C@@H](C(N)=O)N1CCCC1=O [LEV, levetiracetam]",maximum tolerated concentration (MTC),WT zebrafish larvae,10000 µM
same,antiepileptic activity in the model (overall),[4],failed to suppress
same,effect on epileptiform (hyper-)locomotor activity,[1],failed to rescue
same,effect on epileptiform brain discharges,[2]; single treatment at MTC,failed to rescue
"Nc1nnc(-c2cccc(Cl)c2Cl)c(N)n1 [LTG, lamotrigine]",maximum tolerated concentration (MTC),WT zebrafish larvae,100 µM
same,effect on epileptiform (hyper-)locomotor activity,[1],no inhibitory effects
same,effect on epileptiform brain discharges,[2]; single treatment at MTC,no inhibitory effects
"O=C1NC(=O)C(c2ccccc2)(c2ccccc2)N1 [PHT, Phenytoin]",maximum tolerated concentration (MTC),WT zebrafish larvae,100 µM
same,effect on epileptiform (hyper-)locomotor activity,[1],no inhibitory effects
same,effect on epileptiform brain discharges,[2]; single treatment at MTC,no inhibitory effects
"CC(C)(C)C(O)/C=C/c1ccc2c(c1)OCO2 (centres unmarked) [STP, stiripentol]",maximum tolerated concentration (MTC),WT zebrafish larvae,50 µM
same,effect on epileptiform (hyper-)locomotor activity,[1],failed to rescue; also recorded: not active
same,effect on epileptiform brain discharges,[2]; single treatment at MTC,failed to rescue; also recorded: not active
"CC1(C)O[C@@H]2[C@@H](CO[C@@]3(COS(N)(=O)=O)OC(C)(C)O[C@@H]23)O1 [TPM, topiramate]",maximum tolerated concentration (MTC),WT zebrafish larvae,200 µM
same,antiepileptic activity in the model (overall),[4],pronounced therapeutic activity
same,effect on epileptiform (hyper-)locomotor activity,[1],significantly counteracted
same,effect on cumulative duration of epileptiform events,[2]; single treatment at MTC,decrease
same,effect on frequency of epileptiform events,[2]; single treatment at MTC,dramatically attenuated
"CCCC(CCC)C(=O)O [VPA, Valproate]",maximum tolerated concentration (MTC),WT zebrafish larvae,1000 µM
same,effect on locomotor activity,[1]; [9],limited and statistically non-significant effect; also recorded: not active
same,effect on epileptiform (hyper-)locomotor activity,[1],complete rescue
same,effect on epileptiform brain discharges,[2]; [9],limited and statistically non-significant effect; also recorded: not active
same,effect on cumulative duration of epileptiform events,[2]; single treatment at MTC,complete rescue
same,effect on frequency of epileptiform events,[2]; single treatment at MTC,complete rescue

# Source: publication PMC8302504, “Efficacy of Fenfluramine and Norfenfluramine Enantiomers and Various Antiepileptic Drugs in a Zebrafish Model of Dravet Syndrome” (Neurochemical Research, 2021)
